# Source: PubChem BioAssay (NCI)
#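 A five-concentration, 48-hour dose response in 96-well plates underlies each endpoint, interpolated linearly between surrounding concentrations. At the TGI there is no net growth.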
# Columns and labels:
# Experiment in all cases: growth of human tumour cells (NCI), 48 h
# M14 melanoma = system: M14 melanoma
# PC-3 prostate = system: PC-3 prostate
# COLO 205 colon = system: COLO 205 colon
# LOX IMVI melanoma = system: LOX IMVI melanoma
# NCI-H23 lung = system: NCI-H23 lung
# SR leukemia = system: SR leukemia
# SN12C renal = system: SN12C renal
# RXF 393 renal = system: RXF 393 renal
# UACC-257 melanoma = system: UACC-257 melanoma
# IGROV1 ovarian = system: IGROV1 ovarian
# HOP-62 NSCLC = system: HOP-62 NSCLC
# RPMI-8226 leukemia = system: RPMI-8226 leukemia
# NCI-H460 lung = system: NCI-H460 lung
# NCI/ADR-RES ovarian = system: NCI/ADR-RES ovarian
# CAKI-1 renal = system: CAKI-1 renal
# MCF7 breast = system: MCF7 breast
# DU-145 prostate = system: DU-145 prostate
# T-47D breast = system: T-47D breast
# BT-549 breast = system: BT-549 breast
# HCT-116 colon = system: HCT-116 colon
# 786-0 renal = system: 786-0 renal
# ACHN renal = system: ACHN renal
# OVCAR-3 ovarian = system: OVCAR-3 ovarian
# A498 renal = system: A498 renal
# MALME-3M melanoma = system: MALME-3M melanoma
# NCI-H522 lung = system: NCI-H522 lung
# SNB-19 CNS = system: SNB-19 CNS
# SK-MEL-2 melanoma = system: SK-MEL-2 melanoma
# MOLT-4 leukemia = system: MOLT-4 leukemia
# SK-OV-3 ovarian = system: SK-OV-3 ovarian
# HCC-2998 colon = system: HCC-2998 colon
# EKVX NSCLC = system: EKVX NSCLC
# SK-MEL-28 melanoma = system: SK-MEL-28 melanoma
# MDA-N = system: MDA-N
# OVCAR-4 ovarian = system: OVCAR-4 ovarian
# SF-268 CNS = system: SF-268 CNS
# SF-539 CNS = system: SF-539 CNS
# CCRF-CEM leukemia = system: CCRF-CEM leukemia
# HOP-92 NSCLC = system: HOP-92 NSCLC
# SF-295 CNS = system: SF-295 CNS
# UACC-62 melanoma = system: UACC-62 melanoma
# SK-MEL-5 melanoma = system: SK-MEL-5 melanoma
# HL-60(TB) leukemia = system: HL-60(TB) leukemia
# NCI-H226 lung = system: NCI-H226 lung
# HS 578T breast = system: HS 578T breast
# HCT-15 colon = system: HCT-15 colon
# UO-31 renal = system: UO-31 renal
# K-562 leukemia = system: K-562 leukemia
# OVCAR-8 ovarian = system: OVCAR-8 ovarian
# KM12 colon = system: KM12 colon
# SW-620 colon = system: SW-620 colon
# MDA-MB-435 = system: MDA-MB-435
# OVCAR-5 ovarian = system: OVCAR-5 ovarian
# A549 NSCLC = system: A549 NSCLC
# SNB-75 CNS = system: SNB-75 CNS
# HT29 colon = system: HT29 colon
# MDA-MB-231 breast = system: MDA-MB-231 breast
# TK-10 renal = system: TK-10 renal
# U251 CNS = system: U251 CNS
structure (smiles),measurement,setting,value
COc1cc(S(=O)(=O)Nc2ccc(-c3csc(N4C(=O)CSC4c4ccccc4)n3)cc2)ccc1Cl (stereo unspecified),TGI,M14 melanoma,> 100 µM
same,TGI,PC-3 prostate,> 100 µM
same,TGI,COLO 205 colon,> 100 µM
same,TGI,LOX IMVI melanoma,> 100 µM
same,TGI,NCI-H23 lung,> 100 µM
same,TGI,SR leukemia,> 100 µM
same,TGI,SN12C renal,> 100 µM
same,TGI,RXF 393 renal,64.5 µM
same,TGI,UACC-257 melanoma,> 100 µM
same,TGI,IGROV1 ovarian,> 100 µM
same,TGI,HOP-62 NSCLC,> 100 µM
same,TGI,RPMI-8226 leukemia,89.3 µM
same,TGI,NCI-H460 lung,> 100 µM
same,TGI,NCI/ADR-RES ovarian,> 100 µM
same,TGI,CAKI-1 renal,> 100 µM
same,TGI,MCF7 breast,87.4 µM
same,TGI,DU-145 prostate,> 100 µM
same,TGI,T-47D breast,44.7 µM
same,TGI,BT-549 breast,> 100 µM
same,TGI,HCT-116 colon,> 100 µM
same,TGI,786-0 renal,> 100 µM
same,TGI,ACHN renal,> 100 µM
same,TGI,OVCAR-3 ovarian,> 100 µM
same,TGI,A498 renal,3.61 µM
same,TGI,MALME-3M melanoma,> 100 µM
same,TGI,NCI-H522 lung,> 100 µM
same,TGI,SNB-19 CNS,> 100 µM
same,TGI,SK-MEL-2 melanoma,> 100 µM
same,TGI,MOLT-4 leukemia,> 100 µM
same,TGI,SK-OV-3 ovarian,> 100 µM
same,TGI,HCC-2998 colon,42.4 µM
same,TGI,EKVX NSCLC,> 100 µM
same,TGI,SK-MEL-28 melanoma,65.1 µM
same,TGI,MDA-N,> 100 µM
same,TGI,OVCAR-4 ovarian,> 100 µM
same,TGI,SF-268 CNS,> 100 µM
same,TGI,SF-539 CNS,> 100 µM
same,TGI,CCRF-CEM leukemia,> 100 µM
same,TGI,HOP-92 NSCLC,54.4 µM
same,TGI,SF-295 CNS,> 100 µM
same,TGI,UACC-62 melanoma,39.6 µM
same,TGI,SK-MEL-5 melanoma,> 100 µM
same,TGI,HL-60(TB) leukemia,55.7 µM
same,TGI,NCI-H226 lung,> 100 µM
same,TGI,HS 578T breast,> 100 µM
same,TGI,HCT-15 colon,> 100 µM
same,TGI,UO-31 renal,> 100 µM
same,TGI,K-562 leukemia,> 100 µM
same,TGI,OVCAR-8 ovarian,> 100 µM
same,TGI,KM12 colon,> 100 µM
same,TGI,SW-620 colon,> 100 µM
same,TGI,MDA-MB-435,> 100 µM
same,TGI,OVCAR-5 ovarian,> 100 µM
same,TGI,A549 NSCLC,> 100 µM
same,TGI,SNB-75 CNS,> 100 µM
same,TGI,HT29 colon,> 100 µM
O=c1[nH]c2cc3[nH]c4ncccc4c(=O)c3cc2[nH]1,TGI,M14 melanoma,> 10 µM
same,TGI,PC-3 prostate,> 10 µM
same,TGI,COLO 205 colon,> 10 µM
same,TGI,LOX IMVI melanoma,> 10 µM
same,TGI,NCI-H23 lung,> 10 µM
same,TGI,SR leukemia,> 10 µM
same,TGI,SN12C renal,> 10 µM
same,TGI,RXF 393 renal,> 10 µM
same,TGI,UACC-257 melanoma,> 10 µM
same,TGI,IGROV1 ovarian,> 10 µM
same,TGI,HOP-62 NSCLC,> 10 µM
same,TGI,RPMI-8226 leukemia,> 10 µM
same,TGI,NCI-H460 lung,> 10 µM
same,TGI,NCI/ADR-RES ovarian,> 10 µM
same,TGI,CAKI-1 renal,> 10 µM
same,TGI,DU-145 prostate,> 10 µM
same,TGI,T-47D breast,> 10 µM
same,TGI,BT-549 breast,> 10 µM
same,TGI,HCT-116 colon,> 10 µM
same,TGI,MDA-MB-231 breast,> 10 µM
same,TGI,786-0 renal,> 10 µM
same,TGI,ACHN renal,> 10 µM
same,TGI,OVCAR-3 ovarian,> 10 µM
same,TGI,A498 renal,> 10 µM
same,TGI,MALME-3M melanoma,> 10 µM
same,TGI,NCI-H522 lung,> 10 µM
same,TGI,SNB-19 CNS,> 10 µM
same,TGI,SK-MEL-2 melanoma,> 10 µM
same,TGI,MOLT-4 leukemia,> 10 µM
same,TGI,SK-OV-3 ovarian,> 10 µM
same,TGI,HCC-2998 colon,> 10 µM
same,TGI,EKVX NSCLC,> 10 µM
same,TGI,SK-MEL-28 melanoma,> 10 µM
same,TGI,TK-10 renal,> 10 µM
same,TGI,MDA-N,> 10 µM
same,TGI,OVCAR-4 ovarian,> 10 µM
same,TGI,SF-268 CNS,> 10 µM
same,TGI,SF-539 CNS,> 10 µM
same,TGI,CCRF-CEM leukemia,> 10 µM
same,TGI,U251 CNS,> 10 µM
same,TGI,HOP-92 NSCLC,> 10 µM
same,TGI,SF-295 CNS,> 10 µM
same,TGI,UACC-62 melanoma,> 10 µM
same,TGI,SK-MEL-5 melanoma,> 10 µM
same,TGI,HL-60(TB) leukemia,> 10 µM
same,TGI,NCI-H226 lung,> 10 µM
same,TGI,HS 578T breast,> 10 µM
same,TGI,HCT-15 colon,> 10 µM
same,TGI,OVCAR-8 ovarian,> 10 µM
same,TGI,KM12 colon,> 10 µM
same,TGI,SW-620 colon,> 10 µM
same,TGI,MDA-MB-435,> 10 µM
same,TGI,OVCAR-5 ovarian,> 10 µM
same,TGI,A549 NSCLC,> 10 µM
same,TGI,SNB-75 CNS,> 10 µM
same,TGI,HT29 colon,> 10 µM
COc1cc(/C=N/Nc2nnc3c4ccccc4c4ncccc4c3n2)cc(OC)c1OC,TGI,M14 melanoma,> 10 µM
same,TGI,NCI-H23 lung,8.25 µM
same,TGI,SR leukemia,> 10 µM
same,TGI,RXF 393 renal,> 10 µM
same,TGI,UACC-257 melanoma,8.23 µM
same,TGI,IGROV1 ovarian,> 10 µM
same,TGI,NCI-H460 lung,5.68 µM
same,TGI,DU-145 prostate,> 10 µM
same,TGI,T-47D breast,4.11 µM
same,TGI,BT-549 breast,> 10 µM
same,TGI,786-0 renal,> 10 µM
same,TGI,ACHN renal,> 10 µM
same,TGI,OVCAR-3 ovarian,> 10 µM
same,TGI,NCI-H522 lung,5.75 µM
same,TGI,SNB-19 CNS,> 10 µM
same,TGI,MOLT-4 leukemia,> 10 µM
same,TGI,EKVX NSCLC,> 10 µM
same,TGI,TK-10 renal,> 10 µM
same,TGI,MDA-N,8.09 µM
same,TGI,OVCAR-4 ovarian,> 10 µM
same,TGI,SF-268 CNS,> 10 µM
same,TGI,SF-539 CNS,> 10 µM
same,TGI,CCRF-CEM leukemia,> 10 µM
same,TGI,U251 CNS,> 10 µM
same,TGI,SF-295 CNS,> 10 µM
same,TGI,SK-MEL-5 melanoma,> 10 µM
same,TGI,HL-60(TB) leukemia,> 10 µM
same,TGI,NCI-H226 lung,9.12 µM
same,TGI,HS 578T breast,> 10 µM
same,TGI,UO-31 renal,> 10 µM
same,TGI,K-562 leukemia,> 10 µM
same,TGI,OVCAR-8 ovarian,6.58 µM
same,TGI,KM12 colon,> 10 µM
same,TGI,MDA-MB-435,> 10 µM
same,TGI,OVCAR-5 ovarian,> 10 µM
same,TGI,A549 NSCLC,> 10 µM
same,TGI,SNB-75 CNS,> 10 µM
same,TGI,HT29 colon,5.4 µM
CSC1=NS(=O)(=O)c2cc(C(=O)NN(C)C(=O)c3cc4c(cc3Cl)SC(SC)=NS4(=O)=O)c(Cl)cc2S1,TGI,M14 melanoma,> 10 µM
same,TGI,PC-3 prostate,> 10 µM
same,TGI,COLO 205 colon,> 10 µM
same,TGI,LOX IMVI melanoma,> 10 µM
same,TGI,NCI-H23 lung,> 10 µM
same,TGI,SR leukemia,> 10 µM
same,TGI,SN12C renal,> 10 µM
same,TGI,RXF 393 renal,> 10 µM
same,TGI,UACC-257 melanoma,> 10 µM
same,TGI,IGROV1 ovarian,> 10 µM
same,TGI,HOP-62 NSCLC,> 10 µM
same,TGI,RPMI-8226 leukemia,> 10 µM
same,TGI,NCI-H460 lung,> 10 µM
same,TGI,NCI/ADR-RES ovarian,> 10 µM
same,TGI,CAKI-1 renal,> 10 µM
same,TGI,MCF7 breast,> 10 µM
same,TGI,DU-145 prostate,> 10 µM
same,TGI,T-47D breast,> 10 µM
same,TGI,BT-549 breast,> 10 µM
same,TGI,HCT-116 colon,> 10 µM
same,TGI,786-0 renal,> 10 µM
same,TGI,ACHN renal,> 10 µM
same,TGI,OVCAR-3 ovarian,> 10 µM
same,TGI,A498 renal,> 10 µM
same,TGI,MALME-3M melanoma,> 10 µM
same,TGI,NCI-H522 lung,> 10 µM
same,TGI,SNB-19 CNS,> 10 µM
same,TGI,SK-MEL-2 melanoma,> 10 µM
same,TGI,MOLT-4 leukemia,> 10 µM
same,TGI,SK-OV-3 ovarian,> 10 µM
same,TGI,HCC-2998 colon,> 10 µM
same,TGI,EKVX NSCLC,> 10 µM
same,TGI,SK-MEL-28 melanoma,> 10 µM
same,TGI,TK-10 renal,> 10 µM
same,TGI,MDA-N,> 10 µM
same,TGI,OVCAR-4 ovarian,> 10 µM
same,TGI,SF-268 CNS,> 10 µM
same,TGI,SF-539 CNS,> 10 µM
same,TGI,CCRF-CEM leukemia,> 10 µM
same,TGI,U251 CNS,> 10 µM
same,TGI,HOP-92 NSCLC,> 10 µM
same,TGI,SF-295 CNS,> 10 µM
same,TGI,SK-MEL-5 melanoma,> 10 µM
same,TGI,HL-60(TB) leukemia,> 10 µM
same,TGI,NCI-H226 lung,> 10 µM
same,TGI,HS 578T breast,> 10 µM
same,TGI,HCT-15 colon,> 10 µM
same,TGI,UO-31 renal,> 10 µM
same,TGI,K-562 leukemia,> 10 µM
same,TGI,OVCAR-8 ovarian,> 10 µM
same,TGI,KM12 colon,> 10 µM
same,TGI,SW-620 colon,> 10 µM
same,TGI,OVCAR-5 ovarian,> 10 µM
same,TGI,A549 NSCLC,> 10 µM
same,TGI,SNB-75 CNS,> 10 µM
same,TGI,HT29 colon,> 10 µM
